# Laboratory results published in US6737383B1, “Herbicidal oxadiazolidines” (priority 1999, dated 2004).
# How the values were obtained:
# morningglory = experiment: Test B pre/postemergence morningglory; type: in vivo, Ipomoea hederacea
# How it was run: (§1)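 Response is a visual 0-to-10 score relative to untreated plants, where 0 means no effect and 10 means complete control, taken twelve to sixteen days after application. Treatments went onto soil at planting and onto foliage of 1- to 4-leaf plants, using a surfactant-containing non-phytotoxic solvent.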
# bamyardgrass = experiment: Test B flood test barnyardgrass; type: in vivo, Echinochloa crus-galli
# How it was run: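 Each value is a visual injury score relative to controls, with 10 meaning complete control and 0 no effect. Evaluation took place twelve to sixteen days after the 2-leaf-stage plants were treated and kept in the greenhouse.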
# cocklebur = experiment: Test B pre/postemergence cocklebur; type: in vivo, Xanthium strumarium
# How it was run: as §1
# giant foxtail = experiment: Test B pre/postemergence giant foxtail; type: in vivo, Setaria faberii
# How it was run: as §1
# [1] = Postemergence, Rate 250 g/ha, scale 0 to 10, 0 no effect, 10 complete control
# [2] = Postemergence, Rate 1000 g/ha, scale 0 to 10 (0 no effect, 10 complete control)
# [3] = Preemergence, Rate 125 g/ha, scale 0 to 10 (0 no effect, 10 complete control)
# [4] = Preemergence, Rate 250 g/ha, scale of 0 to 10 where 0 is no effect and 10 is complete control
# [5] = Preemergence, Rate 500 g/ha, scale 0 (no effect) to 10 (complete control)
# [6] = Rate 125 g/ha, Postemergence, scale 0 to 10, 0 no effect, 10 complete control
# [7] = Rate 500 g/ha, Postemergence, 0 to 10 scale (0 no effect, 10 complete control)
# [8] = Rate 1000 g/ha, Preemergence, scale 0 to 10 (0 no effect, 10 complete control)
# [9] = Rate 125 g/ha, Postemergence section (flood test species), scale 0 to 10, 0 no effect, 10 complete control
# [10] = Rate 500 g/ha, Postemergence section of Table B, 0 to 10 scale (0 no effect, 10 complete control)
# [11] = flood test, listed under Postemergence, Rate 250 g/ha, scale 0 to 10, 0 no effect, 10 complete control
# [12] = Postemergence, Rate 62 g/ha, scale 0 to 10, 0 is no effect, 10 is complete control
# [13] = Preemergence, Rate 62 g/ha, scale 0 to 10, 0 is no effect, 10 is complete control
# [14] = Preemergence, Rate 31 g/ha, visual rating, scale 0 to 10 (0 no effect, 10 complete control)
# [15] = Rate 31 g/ha, Postemergence, scale 0 to 10
compound,measurement,setting,value
CCN(CC)C(=O)n1oc(=O)n(-c2ccc(OC)cc2)c1=O [Compound 1],Morningglory plant response rating,morningglory; [1],0
same,Morningglory plant response rating,morningglory; [2],0
same,"Plant response rating, Morningglory",morningglory; [3],0
same,"Plant response rating, Morningglory",morningglory; [4],0
same,Morningglory plant response rating,morningglory; [5],0
same,Morningglory plant response rating,morningglory; [6],0
same,Morningglory plant response rating,morningglory; [7],0
same,"Plant response rating, Morningglory",morningglory; [8],0
same,Barnyardgrass plant response rating,bamyardgrass; [2],0
same,Barnyardgrass plant response rating,bamyardgrass; [9],0
same,Barnyardgrass plant response rating,bamyardgrass; [10],0
same,Barnyardgrass plant response rating,bamyardgrass; [11],0
same,Cocklebur plant response rating,cocklebur; [1],0
same,Cocklebur plant response rating,cocklebur; [2],0
same,"Plant response rating, Cocklebur",cocklebur; [3],0
same,"Plant response rating, Cocklebur",cocklebur; [4],0
same,Cocklebur plant response rating,cocklebur; [5],0
same,Cocklebur plant response rating,cocklebur; [6],0
same,Cocklebur plant response rating,cocklebur; [7],0
same,Giant foxtail plant response rating,giant foxtail; [1],2
same,Giant foxtail plant response rating,giant foxtail; [2],8
same,"Plant response rating, Giant foxtail",giant foxtail; [3],7
same,"Plant response rating, Giant foxtail",giant foxtail; [4],8
same,Giant foxtail plant response rating,giant foxtail; [5],9
same,Giant foxtail plant response rating,giant foxtail; [6],0
same,Giant foxtail plant response rating,giant foxtail; [7],8
same,"Plant response rating, Giant foxtail",giant foxtail; [8],9
COc1ccc(-n2c(=O)on(C(=O)N(C3=CCOCC3)C(C)C)c2=O)cc1 [Compound 6],Morningglory plant response rating,morningglory; [1],2
same,Morningglory plant response rating,morningglory; [2],7
same,"Plant response rating, Morningglory",morningglory; [3],0
same,"Plant response rating, Morningglory",morningglory; [4],0
same,Morningglory plant response rating,morningglory; [5],0
same,Morningglory plant response rating,morningglory; [6],0
same,Morningglory plant response rating,morningglory; [7],5
same,"Plant response rating, Morningglory",morningglory; [8],0
same,Barnyardgrass plant response rating,bamyardgrass; [2],8
same,Barnyardgrass plant response rating,bamyardgrass; [9],0
same,Barnyardgrass plant response rating,bamyardgrass; [10],0
same,Barnyardgrass plant response rating,bamyardgrass; [11],0
same,Cocklebur plant response rating,cocklebur; [1],0
same,Cocklebur plant response rating,cocklebur; [2],0
same,"Plant response rating, Cocklebur",cocklebur; [3],0
same,"Plant response rating, Cocklebur",cocklebur; [4],0
same,Cocklebur plant response rating,cocklebur; [5],0
same,Cocklebur plant response rating,cocklebur; [6],0
same,Cocklebur plant response rating,cocklebur; [7],0
same,"Plant response rating, Cocklebur",cocklebur; [8],2
same,Giant foxtail plant response rating,giant foxtail; [1],4
same,Giant foxtail plant response rating,giant foxtail; [2],7
same,"Plant response rating, Giant foxtail",giant foxtail; [3],3
same,"Plant response rating, Giant foxtail",giant foxtail; [4],4
same,Giant foxtail plant response rating,giant foxtail; [5],9
same,Giant foxtail plant response rating,giant foxtail; [6],2
same,Giant foxtail plant response rating,giant foxtail; [7],5
same,"Plant response rating, Giant foxtail",giant foxtail; [8],9
CC(C)N(C(=O)n1oc(=O)n(-c2cc(Cl)cc(Cl)c2)c1=O)C1=CCOCC1 [Compound 9],Morningglory plant response rating,morningglory; [1],0
same,Morningglory plant response rating,morningglory; [2],2
same,"Plant response rating, Morningglory",morningglory; [3],0
same,"Plant response rating, Morningglory",morningglory; [4],0
same,Morningglory plant response rating,morningglory; [5],0
same,Morningglory plant response rating,morningglory; [6],0
same,Morningglory plant response rating,morningglory; [7],0
same,"Plant response rating, Morningglory",morningglory; [8],0
same,Barnyardgrass plant response rating,bamyardgrass; [2],0
same,Barnyardgrass plant response rating,bamyardgrass; [9],0
same,Barnyardgrass plant response rating,bamyardgrass; [10],0
same,Barnyardgrass plant response rating,bamyardgrass; [11],0
same,Cocklebur plant response rating,cocklebur; [1],0
same,Cocklebur plant response rating,cocklebur; [2],4
same,"Plant response rating, Cocklebur",cocklebur; [3],0
same,"Plant response rating, Cocklebur",cocklebur; [4],0
same,Cocklebur plant response rating,cocklebur; [5],0
same,Cocklebur plant response rating,cocklebur; [6],0
same,Cocklebur plant response rating,cocklebur; [7],0
same,"Plant response rating, Cocklebur",cocklebur; [8],0
same,Giant foxtail plant response rating,giant foxtail; [1],0
same,Giant foxtail plant response rating,giant foxtail; [2],0
same,"Plant response rating, Giant foxtail",giant foxtail; [3],0
same,"Plant response rating, Giant foxtail",giant foxtail; [4],0
same,Giant foxtail plant response rating,giant foxtail; [5],3
same,Giant foxtail plant response rating,giant foxtail; [6],0
same,Giant foxtail plant response rating,giant foxtail; [7],0
same,"Plant response rating, Giant foxtail",giant foxtail; [8],7
Cc1ccccc1-n1c(=O)on(C(=O)N(C2=CCOCC2)C(C)C)c1=O [Compound 10],Morningglory plant response rating,morningglory; [12],0
same,Morningglory plant response rating,morningglory; [1],2
same,"Plant response rating, Morningglory",morningglory; [13],0
same,"Plant response rating, Morningglory",morningglory; [3],0
same,"Plant response rating, Morningglory",morningglory; [4],0
same,Morningglory plant response rating,morningglory; [5],0
same,Morningglory plant response rating,morningglory; [6],2
same,Morningglory plant response rating,morningglory; [7],3
same,Barnyardgrass plant response rating,bamyardgrass; [12],0
same,Barnyardgrass plant response rating,bamyardgrass; [9],0
same,Barnyardgrass plant response rating,bamyardgrass; [10],0
same,Barnyardgrass plant response rating,bamyardgrass; [11],0
same,Cocklebur plant response rating,cocklebur; [12],0
same,Cocklebur plant response rating,cocklebur; [1],1
same,"Plant response rating, Cocklebur",cocklebur; [13],0
same,"Plant response rating, Cocklebur",cocklebur; [3],0
same,Cocklebur plant response rating,cocklebur; [5],0
same,Cocklebur plant response rating,cocklebur; [6],0
same,Cocklebur plant response rating,cocklebur; [7],3
same,Giant foxtail plant response rating,giant foxtail; [12],2
same,Giant foxtail plant response rating,giant foxtail; [1],8
same,"Plant response rating, Giant foxtail",giant foxtail; [13],3
same,"Plant response rating, Giant foxtail",giant foxtail; [3],6
same,"Plant response rating, Giant foxtail",giant foxtail; [4],9
same,Giant foxtail plant response rating,giant foxtail; [5],9
same,Giant foxtail plant response rating,giant foxtail; [6],5
same,Giant foxtail plant response rating,giant foxtail; [7],8
CC(C)N(C(=O)n1oc(=O)n(-c2ccc(OC(F)(F)F)cc2)c1=O)C1=CCOCC1 [Compound 13],Morningglory plant response rating,morningglory; [1],0
same,Morningglory plant response rating,morningglory; [2],0
same,"Plant response rating, Morningglory",morningglory; [3],0
same,"Plant response rating, Morningglory",morningglory; [4],0
same,Morningglory plant response rating,morningglory; [5],0
same,Morningglory plant response rating,morningglory; [6],0
same,Morningglory plant response rating,morningglory; [7],0
same,"Plant response rating, Morningglory",morningglory; [8],2
same,Barnyardgrass plant response rating,bamyardgrass; [2],0
same,Barnyardgrass plant response rating,bamyardgrass; [9],0
same,Barnyardgrass plant response rating,bamyardgrass; [10],0
same,Barnyardgrass plant response rating,bamyardgrass; [11],0
same,Cocklebur plant response rating,cocklebur; [1],0
same,Cocklebur plant response rating,cocklebur; [2],0
same,"Plant response rating, Cocklebur",cocklebur; [3],0
same,"Plant response rating, Cocklebur",cocklebur; [4],0
same,Cocklebur plant response rating,cocklebur; [5],0
same,Cocklebur plant response rating,cocklebur; [6],0
same,Cocklebur plant response rating,cocklebur; [7],0
same,Giant foxtail plant response rating,giant foxtail; [1],2
same,Giant foxtail plant response rating,giant foxtail; [2],7
same,"Plant response rating, Giant foxtail",giant foxtail; [3],3
same,"Plant response rating, Giant foxtail",giant foxtail; [4],8
same,Giant foxtail plant response rating,giant foxtail; [5],8
same,Giant foxtail plant response rating,giant foxtail; [6],0
same,Giant foxtail plant response rating,giant foxtail; [7],7
same,"Plant response rating, Giant foxtail",giant foxtail; [8],8
CCN(C(=O)n1oc(=O)n(-c2ccc(C)cc2C)c1=O)C1CCCCC1 [Compound 26],Morningglory plant response rating,morningglory; [12],1
same,Morningglory plant response rating,morningglory; [1],3
same,Morningglory plant response rating,morningglory; [14],0
same,"Plant response rating, Morningglory",morningglory; [13],0
same,"Plant response rating, Morningglory",morningglory; [3],0
same,"Plant response rating, Morningglory",morningglory; [4],0
same,Morningglory plant response rating,morningglory; [15],0
same,Morningglory plant response rating,morningglory; [6],1
same,Barnyardgrass plant response rating,bamyardgrass; [12],0
same,Barnyardgrass plant response rating,bamyardgrass; [9],0
same,Barnyardgrass plant response rating,bamyardgrass; [10],0
same,Barnyardgrass plant response rating,bamyardgrass; [11],0
same,Cocklebur plant response rating,cocklebur; [12],0
same,Cocklebur plant response rating,cocklebur; [1],0
same,Cocklebur plant response rating,cocklebur; [14],0
same,"Plant response rating, Cocklebur",cocklebur; [13],0
same,"Plant response rating, Cocklebur",cocklebur; [3],0
same,"Plant response rating, Cocklebur",cocklebur; [4],0
same,Cocklebur plant response rating,cocklebur; [15],0
same,Cocklebur plant response rating,cocklebur; [6],0
same,Giant foxtail plant response rating,giant foxtail; [12],0
same,Giant foxtail plant response rating,giant foxtail; [1],0
same,Giant foxtail plant response rating,giant foxtail; [14],0
same,"Plant response rating, Giant foxtail",giant foxtail; [13],0
same,"Plant response rating, Giant foxtail",giant foxtail; [3],0
same,"Plant response rating, Giant foxtail",giant foxtail; [4],4
same,Giant foxtail plant response rating,giant foxtail; [15],0
same,Giant foxtail plant response rating,giant foxtail; [6],0
